From patent US20080206761A1, “Ex Vivo Gene Expression in Whole Blood as a Model of Assessment of Individual Variation to Dietary Supplements” (priority 2005, published 2008)

Tested on: TNFSF15 mRNA
Test: TNFSF15 mRNA in whole blood after dietary component and heat-aggregated IgG stimulation
Format: cell-based, human
Experimental: The mRNA and cDNA were prepared from the whole blood that was exposed to the dietary components, as well as the whole blood which remained unexposed. In brief, home-made 96-well filterplates were placed over collection plates, and 150 μl 5 mM Tris, pH 7.4, was applied. Following centrifugation at 120×g for 1 min at 4° C., 50 μl of blood samples were applied to each well and immediately centrifuged at 120×g for 2 min at 4° C., followed by washing of each well with 300 μl PBS once with centrifugation at 2000×g for 5 min at 4° C. Then, 60 μl stock lysis buffer, containing for example 0.5% N-Lauroylsarcosine, 4×SSC, 10 mM Tris HCl, pH 7.4, 1 mM EDTA, 0.1% IGEPAL CA-630, and 1.791 M guanidine thiocyanate, supplemented with 1% 2-mercaptoethanol (Bio Rad, Hercules, Calif., USA), 0.5 mg/ml proteinase K (Pierce, Rockford, Ill., USA), 0.1 mg/ml salmon sperm DNA (5 Prime Eppendorf/Brinkmann, Westbury, N.Y., USA), 0.1 mg/ml E. coli tRNA (Sigma), a cocktail of 10 mM each of the specific reverse primers shown in Table 2, and standard RNA34 oligonucleotides, were applied to the filterplates, followed by incubation at 37° C. for 10 min. The filterplates were then placed over oligo(dT)-immobilized microplates (GenePlate, RNAture), and centrifuged at 2000×g for 5 min at 4° C. Following overnight storage at 4° C., the microplates were washed with 100 μl plain lysis buffer 3 times, followed by 150 μl of wash buffer (0.5 M NaCl, 10 mM Tris, pH 7.4, 1 mM EDTA) 3 times at 4° C. […] The Ct was determined by analytical software (SDS, ABI).
In this embodiment, heparinized whole blood of two individuals was pre-incubated with various dietary supplements at 37° C. for 30 minutes (at the same blood concentrations as in Embodiment 2), then stimulated with 1.2 μL of heat-aggregated IgG. […] The level of TNFSF3 and TNFSF15 mRNA was then assessed using the method described in Embodiment 1, with the exception that SYBR Green PCR was used to quantitate the mRNA. […]

Compound: CC1=C(/C=C/C(C)=C/C=C/C(C)=C/CO)C(C)(C)CCC1 [VA, vitamin A]
- effect on HAG-induced TNFSF15 expression, in words (FIG. 6, two cases, vitamin A 100 nmol/L): eliminated the effect on HAG in one case (case 1)
- baseline expression of TNFSF15, in words (FIG. 6, vitamin A 100 nmol/L): decreased the baseline expression of TNFSF-15
- effect on HAG-induced TNFSF15 expression, in words (FIG. 7 follow-up, seven cases overall, vitamin A only): exhibited an inhibitory action on HAG-induced TNFSF15 expression in case 1, and in two of seven cases overall
